The target of the assay is T1, PI3Kδ (recombinant GST-tagged PIK3CD co-expressed with PIK3R1, p85α) (Homo sapiens, UniProt O00329).
T1 construct: The protein is full length and co-expressed with untagged PIK3R1; GST; purchased Invitrogen PV5274
In words: PI3Kδ inhibition, modified PIK3CD Adapta TR-FRET kinase assay. Format: biochemical. Particulars: 2 μM ATP, 50 μM PIP2, 1 hour at room temperature, pIC50 = -log(IC50 in M). The procedure: The activity of compounds as PI3Kδ inhibitors may be determined by a variety of methods, including in vitro and in vivo methods. The following in vitro assay measures a test compound's ability to inhibit PI3Kδ-mediated phosphorylation of PIP2 and ATP.
Recombinant GST-tagged PIK3CD is purchased from Invitrogen (Part Number: PV5274). The protein is full length and co-expressed with untagged PIK3R1, phosphoinositide-3-kinase regulatory subunit 1 (p85α). The protein is stored at −20° C. in 50 mM TRIS (pH 7.5), 150 mM NaCl, 0.5 mM EDTA, 0.02% Triton® X-100, 2 mM DTT, and 50% glycerol.
A modified PIK3CD Adapta® assay (Invitrogen, Carlsbad, Calif.) is used to measure PI3Kδ inhibition of the example compounds. The assay has two phases. In the first phase, kinase reaction components, which include the enzyme (PIK3CD), substrates (PIP2, ATP), test compound (inhibitor), and assay buffer are added to each well, and the reaction is allowed to incubate for a pre-determined period of time. After reaction, a detection solution composed of a Eu (europium)-labeled anti-ADP antibody, Alexa Fluor® 647-labeled ADP tracer, and EDTA (to stop the kinase reaction) is added to each assay well. In this second phase, ADP formed by the kinase reaction displaces the Alexa Fluor® 647-labeled ADP tracer from the antibody, resulting in a decrease in time-resolved fluorescence resonance energy transfer (TR-FRET) signal. In the presence of the inhibitor, the amount of ADP formed by the kinase reaction is reduced, and the resulting intact antibody-tracer interaction maintains a high TR-FRET signal.
The assay uses black Greiner® 384-well plates (784076). The reaction buffer contains 50 mM Hepes (pH 7.5), 3 mM MgCl2, 1 mM EGTA, 100 mM NaCl, 0.03% CHAPS; 2 mM DTT is added fresh prior to each experiment. Enzyme (4 μL, estimated 1.5 nM in buffer) is first added to the wells of the plate. Next, test compounds (2 μL) from a source plate (5% dilution plate) are introduced into the wells. The final DMSO concentration in each assay well is 1%. The dilution plate contains 5% DMSO in the bottom half of columns 23 and 24, which serve as negative (non-inhibited) controls; the top half contains a known inhibitor concentration (positive control) that gives >98% inhibition of the kinase reaction. Other wells contain test compounds serially diluted across the plate 11 times for a total of 12 data points. The kinase reactions are carried out at room temperature and are initiated by the addition of 4 μL of solution containing 2 μM ATP and 50 μM PIP2. Each reaction is stopped after 1 hour±10 minutes via addition of 10 μL stop solution, which contains a final assay concentration of 3 nM Alexa Fluor® 647-labeled ADP tracer, 2 nM Eu-anti-ADP Antibody, and 10 mM EDTA. After allowing the solutions to equilibrate for 30±10 minutes, a PHERAstar plate reader is used to excite the Eu donor (at 337 nm) and to detect emission from the Alexa Fluor® 647 at 665 nm. This emission signal is referenced or “ratioed” to the emission from Eu at 620 nm. The emission ratio (665 nm/620 nm) from each well is collected and converted to percent conversion using a standard curve for the assay conditions: % conversion=B*(C+A−emission ratio)/(emission ratio−C), where “A” and “C” are the maximum and minimum values of the emission ratio obtained from the standard curve of emission ratio vs. % conversion (ATP-ADP); “B” is the emission ratio corresponding to the % conversion at the EC50 value for the ADP Tracer—Eu anti-ADP antibody complex. The percent inhibition for a given inhibitor concentration is computed from % conversion for the reaction and for the positive and negative controls. Corresponding IC50 values are calculated by non-linear curve fitting of the compound concentrations and values of percent inhibition to the standard IC50 equation and are reported as pIC50, i.e., −log(IC50), where IC50 is molar concentration at 50% inhibition.
In general terms: TR-FRET usually uses a lanthanide donor and a delayed reading to cut background.

What is called IC50 is the midpoint of a concentration-inhibition curve.

T1 sequence (O00329 whole entry): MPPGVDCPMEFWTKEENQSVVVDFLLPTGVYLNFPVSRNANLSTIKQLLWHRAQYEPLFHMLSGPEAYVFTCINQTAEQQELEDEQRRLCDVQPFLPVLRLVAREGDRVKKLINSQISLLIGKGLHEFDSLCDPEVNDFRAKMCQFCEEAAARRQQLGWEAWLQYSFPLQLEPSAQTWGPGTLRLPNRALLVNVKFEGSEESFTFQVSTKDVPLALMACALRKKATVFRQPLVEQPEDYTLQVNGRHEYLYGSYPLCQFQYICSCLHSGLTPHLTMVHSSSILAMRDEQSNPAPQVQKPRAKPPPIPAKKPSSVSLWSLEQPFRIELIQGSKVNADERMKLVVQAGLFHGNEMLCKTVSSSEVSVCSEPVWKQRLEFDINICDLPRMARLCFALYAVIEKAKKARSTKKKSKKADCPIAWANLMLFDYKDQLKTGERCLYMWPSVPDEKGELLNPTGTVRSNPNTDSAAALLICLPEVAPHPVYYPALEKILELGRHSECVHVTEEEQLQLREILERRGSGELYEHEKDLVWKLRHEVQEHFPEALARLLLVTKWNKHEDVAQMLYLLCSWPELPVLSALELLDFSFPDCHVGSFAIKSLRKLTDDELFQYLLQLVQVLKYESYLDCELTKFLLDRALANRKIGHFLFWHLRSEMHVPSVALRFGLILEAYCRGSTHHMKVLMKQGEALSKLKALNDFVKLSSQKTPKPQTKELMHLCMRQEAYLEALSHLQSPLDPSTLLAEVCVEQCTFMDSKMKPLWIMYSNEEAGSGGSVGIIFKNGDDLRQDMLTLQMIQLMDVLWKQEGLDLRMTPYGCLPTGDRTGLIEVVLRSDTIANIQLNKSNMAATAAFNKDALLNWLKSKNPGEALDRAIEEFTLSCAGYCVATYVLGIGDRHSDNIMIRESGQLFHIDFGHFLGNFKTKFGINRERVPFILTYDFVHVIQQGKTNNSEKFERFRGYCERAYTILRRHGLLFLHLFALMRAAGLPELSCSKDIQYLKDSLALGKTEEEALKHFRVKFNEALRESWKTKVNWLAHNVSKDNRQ
T1 sequence (P27986 whole entry partner): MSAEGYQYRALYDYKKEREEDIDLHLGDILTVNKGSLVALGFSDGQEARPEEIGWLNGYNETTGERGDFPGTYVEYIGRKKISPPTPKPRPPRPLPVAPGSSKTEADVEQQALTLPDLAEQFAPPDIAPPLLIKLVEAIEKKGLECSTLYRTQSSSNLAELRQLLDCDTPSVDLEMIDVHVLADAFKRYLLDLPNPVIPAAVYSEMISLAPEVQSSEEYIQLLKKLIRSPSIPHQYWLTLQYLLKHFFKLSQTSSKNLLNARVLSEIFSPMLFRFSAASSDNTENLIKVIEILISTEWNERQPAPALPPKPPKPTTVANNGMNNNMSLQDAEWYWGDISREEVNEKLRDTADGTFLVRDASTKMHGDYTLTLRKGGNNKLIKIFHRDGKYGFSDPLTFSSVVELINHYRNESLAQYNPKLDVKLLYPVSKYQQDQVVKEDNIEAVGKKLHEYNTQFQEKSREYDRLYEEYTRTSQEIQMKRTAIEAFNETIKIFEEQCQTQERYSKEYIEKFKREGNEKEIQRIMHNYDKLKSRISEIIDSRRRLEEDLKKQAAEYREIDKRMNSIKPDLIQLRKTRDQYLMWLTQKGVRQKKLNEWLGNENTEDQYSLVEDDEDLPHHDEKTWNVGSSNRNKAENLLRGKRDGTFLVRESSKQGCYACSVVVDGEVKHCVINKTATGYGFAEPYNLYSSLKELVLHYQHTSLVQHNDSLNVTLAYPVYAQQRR

On to `C[C@H](Nc1nc(N)nc2[nH]cnc12)c1nc2ccn(C)c2cc1-c1ccnn1C(F)F` [Example 37, (S)-N^6-(1-(6-(1-(Difluoromethyl)-1H-pyrazol-5-yl)-1-methyl-1H-pyrrolo[3,2-b]pyridin-5-yl)ethyl)-9H-purine-2,6-diamine], for which the half-maximal inhibitory concentration (IC50) was 10 nM.
As to `C[C@H](Nc1nc(N)nc(N)c1C#N)c1nc2ccn(C)c2cc1C1CCOCC1` [Example 26, (S)-2,4-Diamino-6-((1-(1-methyl-6-(tetrahydro-2H-pyran-4-yl)-1H-pyrrolo[3,2-b]pyridin-5-yl)ethyl)amino)pyrimidine-5-carbonitrile], the half-inhibitory concentration (IC50) was less than 2 nM.
Turning to `Cc1n[nH]cc1-c1cc2c(ccn2C)nc1[C@H](C)Nc1nc(N)nc(C)c1C#N` [Example 19, (S)-2-Amino-4-methyl-6-((1-(1-methyl-6-(3-methyl-1H-pyrazol-4-yl)-1H-pyrrolo[3,2-b]pyridin-5-yl)ethyl)amino)pyrimidine-5-carbonitrile], the half-maximal inhibitory concentration (IC50) is 5.01 nM.
Turning to `Cc1nc(N)nc(N[C@@H](C)c2nc3ccn(C)c3cc2C2CCOCC2)c1C#N` [Example 25, (S)-2-Amino-4-methyl-6-((1-(1-methyl-6-(tetrahydro-2H-pyran-4-yl)-1H-pyrrolo[3,2-b]pyridin-5-yl)ethyl)amino)pyrimidine-5-carbonitrile], the IC50 was less than 1.26 nM.
In the case of `C[C@H](Nc1nc(N)nc(N)c1C#N)c1nc2ccn(C)c2cc1-c1ccn[nH]1` [Example 13, (S)-2,4-Diamino-6-((1-(1-methyl-6-(1H-pyrazol-5-yl)-1H-pyrrolo[3,2-b]pyridin-5-yl)ethyl)amino)pyrimidine-5-carbonitrile], the half-maximal inhibitory concentration (IC50) is 2 nM.
On to `Cc1nc(N)nc(N[C@@H](C)c2nc3ccn(C)c3cc2-c2ccnn2C)c1C#N` [Example 3, (S)-2-Amino-4-methyl-6-((1-(1-methyl-6-(1-methyl-1H-pyrazol-5-yl)-1H-pyrrolo[3,2-b]pyridin-5-yl)ethyl)amino)pyrimidine-5-carbonitrile], for which the IC50 is 1.58 nM.
Turning to `C[C@H](Nc1nc(N)nc(N)c1C#N)c1nc2ccn(C)c2cc1-c1ccnc(O)c1` [Example 15, (S)-2,4-Diamino-6-((1-(6-(2-hydroxypyridin-4-yl)-1-methyl-1H-pyrrolo[3,2-b]pyridin-5-yl)ethyl)amino)pyrimidine-5-carbonitrile], the half-maximal inhibitory concentration (IC50) is less than 1 nM.
For `C[C@H](Nc1nc(N)nc2[nH]ncc12)c1nc2ccn(C)c2cc1-c1ccnn1C` [Example 18, (S)—N^4-(1-(1-Methyl-6-(1-methyl-1H-pyrazol-5-yl)-1H-pyrrolo[3,2-b]pyridin-5-yl)ethyl)-1H-pyrazolo[3,4-d]pyrimidine-4,6-diamine], the IC50 was 501 nM.
With `C[C@H](Nc1nc(N)nc(N)c1C#N)c1nc2ccn(C)c2cc1-c1cscn1` [Example 17, (S)-2,4-Diamino-6-((1-(1-methyl-6-(thiazol-4-yl)-1H-pyrrolo[3,2-b]pyridin-5-yl)ethyl)amino)pyrimidine-5-carbonitrile], the IC50 was less than 1 nM.
Regarding `Cc1nc(N)nc(N[C@@H](C)c2nc3ccn(C)c3cc2-c2ccccn2)c1C#N` [Example 24, (S)-2-Amino-4-methyl-6-((1-(1-methyl-6-(pyridin-2-yl)-1H-pyrrolo[3,2-b]pyridin-5-yl)ethyl)amino)pyrimidine-5-carbonitrile], the IC50 is less than 1 nM.
Then `C[C@H](Nc1nc(N)nc(N)c1Cl)c1nc2ccn(C)c2cc1-c1ccnn1C` [Example 33, (S)-5-Chloro-N^4-(1-(1-methyl-6-(1-methyl-1H-pyrazol-5-yl)-1H-pyrrolo[3,2-b]pyridin-5-yl)ethyl)pyrimidine-2,4,6-triamine], with 31.6 nM.
On to `C[C@H](Nc1nc(N)nc(N)c1C#N)c1nc2ccn(C)c2cc1N1CC(F)(F)C1` [Example 44, (S)-2,4-Diamino-6-((1-(6-(3,3-difluoroazetidin-1-yl)-1-methyl-1H-pyrrolo[3,2-b]pyridin-5-yl)ethyl)amino)pyrimidine-5-carbonitrile], for which the IC50 was 2 nM.
Consider `C[C@H](Nc1nc(N)nc(N)c1Cl)c1nc2ccn(C)c2cc1N1CCOCC1` [Example 28, (S)-5-Chloro-N^4-(1-(1-methyl-6-morpholino-1H-pyrrolo[3,2-b]pyridin-5-yl)ethyl)pyrimidine-2,4,6-triamine], for which the half-maximal inhibitory concentration (IC50) was 126 nM.
`Cc1nc(N)nc(N[C@@H](C)c2nc3ccn(C)c3cc2N2CCOCC2)c1C#N` [Example 9, (S)-2-Amino-4-methyl-6-((1-(1-methyl-6-morpholino-1H-pyrrolo[3,2-b]pyridin-5-yl)ethyl)amino)pyrimidine-5-carbonitrile]: the IC50 is 0.794 nM.
In the case of `Cc1nc(N)c(C#N)c(NC(C)c2nc3ccn(C)c3cc2N2CCOCC2)n1` (stereo not shown) [Example 6, 4-Amino-2-methyl-6-((1-(1-methyl-6-morpholino-1H-pyrrolo[3,2-b]pyridin-5-yl)ethyl)amino)pyrimidine-5-carbonitrile], the IC50 is 63.1 nM.
Turning to `C[C@H](Nc1nc(N)ncc1C#N)c1nc2ccn(C)c2cc1-c1ccnn1C` [Example 4, (S)-2-Amino-4-((1-(1-methyl-6-(1-methyl-1H-pyrazol-5-yl)-1H-pyrrolo[3,2-b]pyridin-5-yl)ethyl)amino)pyrimidine-5-carbonitrile], the IC50 is 63.1 nM.
Turning to `C[C@H](Nc1nc(N)nc(N)c1C#N)c1nc2ccn(C)c2cc1-c1ccnn1C1CC1` [Example 35, (S)-2,4-Diamino-6-((1-(6-(1-cyclopropyl-1H-pyrazol-5-yl)-1-methyl-1H-pyrrolo[3,2-b]pyridin-5-yl)ethyl)amino)pyrimidine-5-carbonitrile], the IC50 was 2.51 nM.
Regarding `Cc1n[nH]c(C)c1-c1cc2c(ccn2C)nc1[C@H](C)Nc1nc(N)nc(N)c1C#N` [Example 14, 2,4-Diamino-6-(((1S)-1-(6-(3,5-dimethyl-1H-pyrazol-4-yl)-1-methyl-1H-pyrrolo[3,2-b]pyridin-5-yl)ethyl)amino)pyrimidine-5-carbonitrile], the half-inhibitory concentration (IC50) was 7.94 nM.
As to `Cc1noc(C)c1-c1cc2c(ccn2C)nc1[C@H](C)Nc1nc(N)nc(N)c1C#N` [Example 30, 2,4-Diamino-6-(((1S)-1-(6-(3,5-dimethylisoxazol-4-yl)-1-methyl-1H-pyrrolo[3,2-b]pyridin-5-yl)ethyl)amino)pyrimidine-5-carbonitrile], the 50% inhibitory concentration (IC50) is less than 1 nM.
Then `C[C@H](Nc1nc(N)nc(N)c1C#N)c1nc2ccn(C)c2cc1N1CCOCC1` [Example 10, (S)-2,4-Diamino-6-((1-(1-methyl-6-morpholino-1H-pyrrolo[3,2-b]pyridin-5-yl)ethyl)amino)pyrimidine-5-carbonitrile], with less than 2.51 nM; and `C[C@@H](Nc1nc(N)nc(N)c1C#N)c1nc2ccn(C)c2cc1N1CC2(COC2)C1` [Example 46, (R)-2,4-Diamino-6-((1-(1-methyl-6-(2-oxa-6-azaspiro[3.3]heptan-6-yl)-1H-pyrrolo[3,2-b]pyridin-5-yl)ethyl)amino)pyrimidine-5-carbonitrile], with 200 nM.
Regarding `C[C@H](Nc1nc(N)nc(N)c1C#N)c1nc2ccn(C)c2cc1-c1ccnn1C(F)F` [Example 32, (S)-2,4-Diamino-6-((1-(6-(1-(difluoromethyl)-1H-pyrazol-5-yl)-1-methyl-1H-pyrrolo[3,2-b]pyridin-5-yl)ethyl)amino)pyrimidine-5-carbonitrile], the IC50 was 1.58 nM.

The record behind these values is US8835420B2, “Azaindole derivatives” (Takeda Pharmaceutical Company Limited, priority 2012, dated 2014).
